Test results from patent US20240084353A1, “PROCESS TO PRODUCE MONO-RHAMNOLIPIDS” (Conopco, Inc., d/b/a UNILEVER, priority 2021, published 2024).

Tested on: α-L-rhamnosidase from A. terreus
Assay: Influence of rhamnose excess on rhamnosidase activity (product inhibition)
Format: biochemical, Aspergillus terreus
Settings: pNPR substrate, rhamnose solutions 0.6-3 mM added 1:1:1, pH 6.5, 40° C., 30 minutes
Procedure: The activity is expressed as the changes in time of the relative absorbance at 405 nm. The absorbance was measured every 30 sec. Substrate was used at 100 μM. The analysis was performed only for α-l-rhamnosidase from A. terreus. The influence of rhamnose excess on enzyme activity was investigated using the same colorimetric method as described above (See FIG. 1). The pNPR substrate was first dissolved in DMSO, with concentration adjusted to 300 μM in 100 mM sodium phosphate buffer pH 6.5. Enzymes were diluted to concentration of 30 μg/mL in 100 mM sodium phosphate buffer pH 6.5. Following sequence of rhamnose concentrations were prepared in 100 mM sodium phosphate buffer pH 6.5: 0.6 mM, 1.2 mM, 1.8 mM, 2.4 mM, 3 mM. 240 μL of the total reaction mixture was prepared by adding the substrate solution, the enzyme solution and the rhamnose solution in 1:1:1 ratio. The activity assay was performed on 96-well Microtiter UV plate by Thermo Scientific (Waltham, MA USA). All reactions were done at pH 6.5 and in temperature 40° C. The changes in absorbance were monitored at 405 nm for 30 minutes in Microplate reader Varioskan® Flash.

C[C@H](O)[C@H](O)[C@@H](O)[C@@H](O)C=O [rhamnose]
substrate conversion rate with increasing amount of rhamnose added: decreased
